Results from US20100303932A1 (priority 2009, published 2010).
Values joined by “and” are separate entries in the source; they are usually repeats but may differ in a detail not shown here. Identical values can stand only once.

Columns and labels:
Neuro 2a cells [1] = type: cell-based, mouse
[2] = system: mice injected with BoNT/A; details: mouse, in vivo
[3] = system: EDL nerve muscle preparations; design: species or system mouse
[4] = system: EDL nerve muscle preparations
motor nerve terminals = system: motor nerve terminals; design: species or system mouse
[5] = system: mice injected with BoNT/A; details: mouse, in vivo; remark: listed apart in the source
[6] = system: mice injected with BoNT/A; details: mouse, in vivo; remark: listed apart in the source
[7] = mouse, in vivo
[8] = system: mice injected with BoNT/A; details: mouse, in vivo; remark: listed apart in the source
[9] = system: mice injected with BoNT/A
Neuro 2a cells [10] = type: cell-based, mouse; remark: listed apart in the source
TRPV1 = system: TRPV1; design: species or system mouse

SMILES: COc1cc(CNC(=O)CCCC/C=C/C(C)C)ccc1O [capsaicin, trans 8-methyl-N-vanillyl-6-noneamide]
- BoNT/A uptake into Neuro 2a cells (Neuro 2a cells [1]): reduced
- reduction of BoNT/A uptake into Neuro 2a cells by capsaicin (Neuro 2a cells [1]): prevented by removal of extracellular Ca^2+
- Muscle Strength (%) ± SEM [2]: 100%
- motor strength [2]: retained normal motor strength
- amplitude of endplate currents (EPCs) [3]: reduced this action of BoNT/A
- endplate potentials (EPPs) in response to 70 Hz nerve stimulation [3]: did not fail
- inhibitory effect of BoNT/A on mean EPC amplitude [3]: reduced the inhibitory effect of BoNT/A
- force generation or amplitude of stimulus evoked endplate currents (EPC) [4]: no effect
- mean nerve-evoked twitch tension ([4]; n=4): 500 ± 100 mg
- exocytosis-induced uptake of BoNT/A into motor nerve terminals (motor nerve terminals): prevented
- reduction of BoNT/A uptake into motor nerve terminals by capsaicin (motor nerve terminals): prevented by removal of extracellular Ca^2+
- Toe spread reflex (TSR) [5]: remained completely normal
- Toe spread reflex (TSR) at times later than 24 hours after BoNT/A [5]: continued unaltered
- Toe spread reflex (TSR) within 24 hours [5]: remained normal
- cessation of grooming behavior after BoNT/A [6]: reduced
- Body Weight (gram) ± SEM [7]: 32.62 ± 0.56 gram and 33.55 ± 0.51 gram and 38.39 ± 0.93 gram
- loss of body mass after BoNT/A [7]: reduced the loss of body mass
- recovery of body weight following BoNT/A [7]: significantly enhanced recovery of body weight
- walk time on rotating rod [8]: remained equivalent to non-treated controls
- CMAP amplitude compared to BoNT/A alone treated mice ([9]; mouse, in vivo): significantly greater
- fold recovery of CMAP from week 1 to week 7 ([9]; mouse, in vivo): approximately 18 fold
- muscle strength, body weight, CMAP amplitude and performance on the rotor rod ([9]; mouse, in vivo): normal
- CMAP amplitude ([9]; n=4): 4.6±0.92 mV and 6.7±1.24 mV and 7.6±1.12 mV
- FM1-43 labeling (Neuro 2a cells [10]): equivalent to control
- protective effect of capsaicin on FM1-43 uptake (Neuro 2a cells [10]): did not occur
- expression of TRPV1 (TRPV1): did not affect

SMILES: Oc1cc2c(cc1O)CN(C(=S)NCCc1ccc(Cl)cc1)CCC2 [capsazepine]
- EPC amplitude or time course [3]: no effect
- amplitude of endplate currents (EPCs) [3]: equivalent to that observed after BoNT/A alone
- inhibitory effect of BoNT/A on mean EPC amplitude [3]: the protective action of capsaicin was abolished
- toe spread 24 hours post-capsaicin [5]: unable to spread toes
